Like-named read-outs stand apart in the source and are kept apart here.
Legend:
FabF [1] = molecular target: T1, FabF (Staphylococcus aureus, UniProt Q8NXE1); experiment: […]-malonyl-CoA FASII elongation assay; type: biochemical
T1 sequence (Q8NXE1 1-414): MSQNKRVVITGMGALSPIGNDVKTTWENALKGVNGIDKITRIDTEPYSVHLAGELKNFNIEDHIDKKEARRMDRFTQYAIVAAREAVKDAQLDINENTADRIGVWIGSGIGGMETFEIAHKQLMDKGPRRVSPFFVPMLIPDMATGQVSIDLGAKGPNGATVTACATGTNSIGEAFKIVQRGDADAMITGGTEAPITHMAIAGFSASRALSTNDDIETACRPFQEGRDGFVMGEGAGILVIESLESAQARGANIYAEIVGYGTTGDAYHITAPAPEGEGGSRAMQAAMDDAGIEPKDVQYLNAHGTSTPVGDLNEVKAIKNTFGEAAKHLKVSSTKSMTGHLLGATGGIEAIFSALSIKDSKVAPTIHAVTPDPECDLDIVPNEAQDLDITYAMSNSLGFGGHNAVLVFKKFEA

FabF [2] = molecular target: T1, FabF; type: biochemical

For fasamycin B [compound 2], the IC50 (FabF [1]) was 80 µg/mL.

For fasamycin A [compound 1], the IC50 (FabF [2]) was 50 µg/mL.

Reference: paper PMC3335777 (Journal of the American Chemical Society, 2012)
